In PMC4827351 (Chemical Science, 2015):

How the values were obtained:
[1] = test system: Listeria monocytogenes ATCC 19115; test: Antimicrobial activity assay (CFU counting); format: cell-based; conditions: 50 µM peptide, 1 h, 37 °C, 10 mM sodium phosphate buffer containing 1% v/v TSB, n = 3
Method: (§1) The assays were performed according to a literature procedure.[15] Briefly, a 90 μL aliquot of the diluted bacterial culture was added to each well and then to each well was added 10 μL of a 10× concentrated aqueous peptide solution (500 μM) or sterile Milli-Q water as a no-peptide control. The plate was incubated for 1 h (37 °C, 150 rpm). The serial dilution for CFU counting was conducted as previously reported.[15] These assays were performed with at least two independently prepared and purified samples of each peptide and in three independent trials. The resulting averages and standard deviations are reported. […]
(§2) a bE. coliL. monocytogenes
(§3) Concentration (µM) Concentration (µM)
(§4) Figure S4. Antibacterial activity assays against E. coli ATCC 25922 and L. monocytogenes ATCC 19115. The bacteria were treated with 50 µM of each peptide for 1 h at 37 ° C in 10 mM sodium phosphate buffer containing 1% v/v TSB (mean ± SDM, n = 3). An asterisk indicates no […]
(§5) Retention Time (min) Retention Time (min)
(§6) Figure S5. In vitro trypsin-catalyzed proteolysis of proHD6. Analytical HPLC traces of trypsin-treated (a) proHD6 or (b) mature HD6 (30 µM x 80 µL) at indicated time points. Absorbance at 220 nm was monitored with a reference wavelength of 500 nm. Method: 10–60% B over 30 min

[2] = test system: Escherichia coli ATCC 25922; test: Antimicrobial activity assay (CFU counting); format: cell-based; conditions: 50 µM peptide, 1 h, 37 °C, 10 mM sodium phosphate buffer containing 1% v/v TSB, n = 3
Method: as §1, §2, §3, §4, §5, §6

[3] = test system: E. coli ATCC 25922; test: Cuvette-based bacterial agglutination assay; format: cell-based, Escherichia coli; conditions: n = 3
Source text: We previously reported a simple cuvette-based in vitro agglutination assay that enables time-dependent monitoring of agglutination of viable bacteria by HD6.[15] We employed this assay to further characterize the trypsin-dependent activity of proHD6 on cultured bacterial cells (Fig. 4a and b). […] In these assays, we defined the “supernatant” as the culture solution in the top portion of the cuvette and the “re-suspension” as the mixture that results from agitating the entire culture after the 6 h incubation period.[15] We observed an ≈1.5-fold log reduction in CFU mL^–1 for the “supernatant” from cultures treated with combination of trypsin and proHD6 relative to the no-peptide control (Fig. 4c). Following “re-suspension”, the total CFU mL^–1 in the cuvette was indistinguishable from that of either the untreated control culture or the bacterial culture treated with proHD6.
Fig. 4 Bacterial agglutination assays for native and cleaved proHD6. (a) Agglutination of E. coli ATCC 25922 and L. monocytogenes ATCC 19115 in 50% MHB treated with proHD6 in the absence and presence of 0.4 μM trypsin or HD6 (control). (b) Representative images of cuvettes containing E. coli ATCC 25922 or L. monocytogenes ATCC 19115 after incubation with 20 μM peptides for 2 h at room temperature. (c) Plots of colony forming units (CFU mL^–1) of E. coli ATCC 25922 and L. monocytogenes ATCC 19115 after treatment with 20 μM peptides for 6 h (mean ± SDM, n = 3). Supernatant is defined as the clarified medium solution in the top portion of the culture and resuspension is defined as the mixture after thoroughly agitating the heterogeneous solution.
Stock solutions (50 μL) of HD6 and proHD6 (0, 50, 100, and 200 μM; 10× concentrations) were prepared in sterile Milli-Q water. If trypsin was required, aliquots of a 1 mg mL^–1 stock solution of TPCK-treated trypsin (Worthington) prepared in sterile Milli-Q water were added to solutions of proHD6 to afford a final trypsin concentration of 0.01 mg mL^–1. The assays were then conducted following the reported procedure.[15] […]

[4] = Sedimentation equilibrium analytical ultracentrifugation; format: physicochemical; conditions: 10 mM sodium phosphate; for MW (sedimentation equilibrium, SEDPHAT): pH 7.4, 20 °C, global fit
Method: Sedimentation equilibrium (SE) experiments were performed to determine the molecular weight of proHD6. The proHD6 samples were prepared as described in the SV experiments with modification. In a typical set of experiments, proHD6 solutions in Milli-Q water (≈100 μL) prepared in microcentrifuge tubes were lyophilized to dryness. An aliquot (110 μL, pre-filtered, 0.22 μm filter) of 10 mM sodium phosphate buffer adjusted to pH 7.4 was added to each tube to afford solutions with varying concentrations of proHD6 (30, 60, and 120 μM) and transferred to AUC sample cells. The pH of each solution was measured to confirm that each solution remained at pH 7.4. Based on the sedimentation coefficients obtained from the SV experiments, equilibrium profiles were obtained at rotor speeds of 30 000, 36 000, and 42 000 rpm. Once equilibrium was established, two scans with five replicates were recorded. The absorption wavelength for optical detection was 280 nm, and the instrument was maintained at 20 °C.
The details of the experimental setup and data analysis are reported elsewhere.[52] SEDNTERP[53] was employed to calculate the buffer viscosity (η), buffer density (ρ), and the partial specific volume (value of proHD6 at 20 °C) as described in the SV section. The molecular weight of proHD6 was determined by global fitting of the multispeed equilibrium data across all loading concentrations at pH 7.4 using SEDPHAT.[31] The Species Analysis model with mass conservation was employed for data analysis. The bottom of the sample sector was assigned as a floating parameter. To further evaluate whether each least-squares curve-fitting procedure converged to a global minimum, the alternate methods of Simplex, Marquardt–Levenberg, and simulated annealing were employed to assess any change in the global reduced chi-squared value.
Table S5. Molecular weight fitting of SE data for proHD6 by using SEDPHAT.a 95% Confidence Standard Global Reduced Critical Chi-Squared
Sample MW (Da) Intervalb Deviationb Chi-Squared Valuec […]
a All samples were in 10 mM sodium phosphate, pH 7.4. Global fitting used partial specific volume (v) at 20 °C, a solvent density ( ρ) of 0.99967 g/mL, and a solvent viscosity (η) of 1.0061 cP. Viscosity units are in centipoise (cP) (1 poise = 1 gŸ[…] cm-1Ÿ[…]s-1). b Calculated from 1000 iterations of Monte-Carlo analysis. c Calculated at a 95% confidence level.

EPLQAEDDPLQAKAYEADAQEQRGANDQDFAVSFAEDASSSLRALGSTRAFTCHCRRSCYSTEYSYGTCTVMGINHRFCCL (disulfide (positions not given here)) [proHD6, 81-residue propeptide of human α-defensin 6, recombinant, from His6-SUMO-proHD6]
antibacterial activity [1]: does not exhibit antibacterial activity | antibacterial activity [2]: does not exhibit antibacterial activity | total CFU mL^-1 after re-suspension versus untreated control culture or culture treated with proHD6 ([3]; 20 µM proHD6 + trypsin, 6 h, entire culture agitated): indistinguishable | agglutination of bacterial culture in cuvette, with trypsin ([3]; proHD6 + 0.4 µM (0.01 mg/mL) trypsin, 10^8 CFU mL^-1, 50% MHB, room temperature): bacterial agglutination and sedimentation occurred | agglutination of bacterial culture in cuvette ([3]; proHD6 up to 20 µM, no trypsin, 10^8 CFU mL^-1, 50% MHB, 6 h, room temperature): remained homogeneous | molecular weight in solution (sedimentation equilibrium, global analysis) ([4]; pH 7.4, 20 °C, 30, 60, 120 µM proHD6, 30 000/36 000/42 000 rpm, A280, SEDPHAT, SD ±230 Da, 95% interval 15 059-15 946 Da): 15 549 Da | MW (sedimentation equilibrium, SEDPHAT) ([4]; Sample 1): 15176 Da | MW (sedimentation equilibrium, SEDPHAT) ([4]; Sample 2): 15351 Da | MW (sedimentation equilibrium, SEDPHAT) ([4]; Sample 3): 15549 Da
